Assay results taken from US20150065709A1, “Aminoquinazoline Derivative And Use Thereof In Preparing Anti-Malignant Tumor Medicament” (METABOMICS, INC, priority 2012, published 2015).

Legend:
A431(EGFR) = test: Transplanted tumor in nude mice, A431 model; type: in vivo, nude mice (BALB/c)
Excerpt: (§1) Furthermore, more pharmacological models of tumor cell lines in nude mice were utilized to validate the inhibitory effects of compound Ie. The test method was specifically described as follows: H1975, A549, HCC827, A431, N87, MDA-MD-468 and CAL27 tumor cells respectively were inoculated into nude mice (BALB/c, male, 5-6 weeks of age), and when the mean tumor volume reaches 150 mm^3 mice was randomized into groups. The H1975 tumor model in nude mice includes one positive control group and three dosage groups of compound Ie (6.7 mg/kg/day, 13.4 mg/kg/day, and 20.1 mg/kg/day. The A549 tumor model in nude mice includes one positive control group, two dosage groups of compound Ie (10 mg/kg/day, 20 mg/kg/day), and one dosage group of Docetaxel (12 mg/kg/day). The HCC827 tumor model in nude mice includes one positive control group, two dosage groups of compound Ie (0.5 mg/kg/day, 2.5 mg/kg/day), and one dosage group of Erlotinib (12.5 mg/kg/day). The A431 tumor model in nude mice includes one positive control group, two dosage groups of compound Ie (2.5 mg/kg/day, 5 mg/kg/day), and one dosage group of Erlotinib (50 mg/kg/day). […] The tumor size and body weight of nude mice were recorded twice weekly from the first day of administration. The tumor volume was calculated using formula (1×w^2), wherein 1 and w respectively represents the maximum and minimum size in each measurement. […]

HER2 = HER2 (Homo sapiens, UniProt P04626); test: Caliper Mobility Shift Assay, inhibition of HER2 kinase activity; type: biochemical
HER2, sequence (P04626 23-1255): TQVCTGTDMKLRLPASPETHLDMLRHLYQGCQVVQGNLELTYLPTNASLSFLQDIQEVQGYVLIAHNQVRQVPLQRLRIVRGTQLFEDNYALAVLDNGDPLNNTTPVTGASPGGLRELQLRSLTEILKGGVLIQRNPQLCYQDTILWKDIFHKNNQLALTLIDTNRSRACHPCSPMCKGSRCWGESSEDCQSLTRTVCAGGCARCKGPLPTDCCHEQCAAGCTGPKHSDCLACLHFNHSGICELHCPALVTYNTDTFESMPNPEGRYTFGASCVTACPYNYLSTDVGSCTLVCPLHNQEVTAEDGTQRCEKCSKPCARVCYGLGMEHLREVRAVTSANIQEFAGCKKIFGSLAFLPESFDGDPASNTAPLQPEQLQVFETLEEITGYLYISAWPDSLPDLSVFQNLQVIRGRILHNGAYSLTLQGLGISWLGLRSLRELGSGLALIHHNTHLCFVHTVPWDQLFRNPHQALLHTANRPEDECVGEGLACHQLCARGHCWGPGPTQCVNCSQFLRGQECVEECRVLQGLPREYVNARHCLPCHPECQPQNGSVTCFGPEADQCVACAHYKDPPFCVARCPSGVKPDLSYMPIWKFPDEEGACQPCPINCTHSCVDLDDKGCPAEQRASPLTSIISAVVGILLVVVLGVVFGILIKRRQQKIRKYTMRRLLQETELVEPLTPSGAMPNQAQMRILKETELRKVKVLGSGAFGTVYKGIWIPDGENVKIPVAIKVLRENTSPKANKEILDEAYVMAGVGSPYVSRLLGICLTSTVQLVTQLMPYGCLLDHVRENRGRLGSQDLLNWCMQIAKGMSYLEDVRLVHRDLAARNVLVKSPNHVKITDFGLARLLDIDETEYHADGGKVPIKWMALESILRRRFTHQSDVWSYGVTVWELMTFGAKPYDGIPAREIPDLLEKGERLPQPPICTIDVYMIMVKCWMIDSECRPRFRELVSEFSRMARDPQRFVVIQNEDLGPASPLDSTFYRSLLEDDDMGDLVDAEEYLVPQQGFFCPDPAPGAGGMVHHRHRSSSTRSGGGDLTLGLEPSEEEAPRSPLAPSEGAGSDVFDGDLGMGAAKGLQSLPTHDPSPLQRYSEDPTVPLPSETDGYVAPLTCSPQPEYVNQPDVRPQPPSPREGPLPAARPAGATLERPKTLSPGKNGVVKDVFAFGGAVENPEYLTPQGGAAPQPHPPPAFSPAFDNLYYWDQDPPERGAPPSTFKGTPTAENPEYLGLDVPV

A431 = test: Inhibition of tumor cells, WST method; type: cell-based; details: Homo sapiens, A-431, 48 hours
Method: (§2) (1) Compounds: in vitro studies the test compounds was dissolved in 100% DMSO and diluted until the final concentration of DMSO was 0.1%. The 0.1% (v/v) DMSO was added into culture medium as solvent control. 9 concentration gradients were tested and each gradient was repeated twice. (2) Tumor cell lines: the tumor cell lines were cultivated in RPMI10 culture medium containing 10% fetal calf serum in incubator at 37° C. in a 5% CO2 air incubator. The tested tumor cell lines were: BT474, MDA-MB-231, SK-Br-3, A431, H292, H1975, HCC827, A549, H1650 and H1734. (3) MTS method: cells were seeded into 96-well plate to give a density of about 3000 cells per well, and incubated overnight in a humidified incubator at 37° C. In the next day, the test compounds were added to the wells and further incubated for 72 hours. The cell activity was detected using MTS. IC50 was calculated (the concentration of a compound that is required for 50% inhibition of the cell growth versus the DMSO control group, using nonlinear regression analysis of software GraphPad Prism). […] In a 96-well plate, each test compound was tested at 9 dosage concentrations and each dosage was made in triplicate. Samples were added in 100 μL/well. Cell control and negative control wells contained diluents instead of compounds. Except the negative control well, 100 μL cell suspension of complete medium was added into each test well, wherein corresponding cell numbers were included to assure that the cells in cell control well just cover the bottom of the well as the required incubation time was reached. The plate was incubated in a CO2 incubator at 37° C. for 48 hours. The liquid in test wells was removed by pipetting. 100 μL CCK-8 (Cell counting Kit-8, purchased from DOJINDO Molecular Technologies) detection liquid (containing 10% CCK-8, 5% FBS corresponding medium) was added into each test well, then the plate was incubated in a CO2 incubator under at 37° C. for 3 hours. OD value was detected by ELIASA at A450 nm. Cell viability percentage (%)=(O.D. test compound-O.D. blank)/(O.D. control-O.D. blank)×100. Mean value was calculated for each 3 repeated wells, and IC50 was calculated using nonlinear regression (fitted curve) data analysis method.
(§3) Parts of test results of compound Ie listed in the table 3 and all of the test results listed in the table 4 were obtained by WST method.

H1975 = test: Inhibition of tumor cells, WST method; type: cell-based; details: Homo sapiens, NCI-H1975, 48 hours
Method: as §2, §3

FaDu = test: Inhibition of tumor cells, WST method; type: cell-based; details: Homo sapiens, Head and Neck
Method: as §2, §3

MDA-MB-468 = test: Inhibition of tumor cells, WST method; type: cell-based; details: Homo sapiens, Breast
Method: as §2, §3

Calu-3 = test: Inhibition of tumor cells, WST method; type: cell-based; details: Homo sapiens, Lung
Method: as §2, §3

NCI-H358 = test: Inhibition of tumor cells, WST method; type: cell-based; details: Homo sapiens, Lung
Method: as §2, §3

DU145 = test: Inhibition of tumor cells, WST method; type: cell-based; details: Homo sapiens, DU-145, Prostate
Method: as §2, §3

NCI-H2126 = test: Inhibition of tumor cells, WST method; type: cell-based; details: Homo sapiens, Lung
Method: as §2, §3

C-33A = test: Inhibition of tumor cells, WST method; type: cell-based; details: Homo sapiens, Uterine Neck
Method: as §2, §3

[1] = system: CAL27 (head and neck cancer); test: Transplanted tumor in nude mice, CAL27 model; type: in vivo, nude mice (BALB/c); details: 10 mg/kg/day orally for 21 days
Excerpt: as §1

[2] = system: MDA-MD-468 (breast cancer); test: Transplanted tumor in nude mice, MDA-MD-468 model; type: in vivo, nude mice (BALB/c)
Excerpt: as §1

EGFR = EGFR (Homo sapiens, UniProt P00533); test: Caliper Mobility Shift Assay, inhibition of EGFR kinase activity; type: biochemical
EGFR, sequence (P00533 25-1210): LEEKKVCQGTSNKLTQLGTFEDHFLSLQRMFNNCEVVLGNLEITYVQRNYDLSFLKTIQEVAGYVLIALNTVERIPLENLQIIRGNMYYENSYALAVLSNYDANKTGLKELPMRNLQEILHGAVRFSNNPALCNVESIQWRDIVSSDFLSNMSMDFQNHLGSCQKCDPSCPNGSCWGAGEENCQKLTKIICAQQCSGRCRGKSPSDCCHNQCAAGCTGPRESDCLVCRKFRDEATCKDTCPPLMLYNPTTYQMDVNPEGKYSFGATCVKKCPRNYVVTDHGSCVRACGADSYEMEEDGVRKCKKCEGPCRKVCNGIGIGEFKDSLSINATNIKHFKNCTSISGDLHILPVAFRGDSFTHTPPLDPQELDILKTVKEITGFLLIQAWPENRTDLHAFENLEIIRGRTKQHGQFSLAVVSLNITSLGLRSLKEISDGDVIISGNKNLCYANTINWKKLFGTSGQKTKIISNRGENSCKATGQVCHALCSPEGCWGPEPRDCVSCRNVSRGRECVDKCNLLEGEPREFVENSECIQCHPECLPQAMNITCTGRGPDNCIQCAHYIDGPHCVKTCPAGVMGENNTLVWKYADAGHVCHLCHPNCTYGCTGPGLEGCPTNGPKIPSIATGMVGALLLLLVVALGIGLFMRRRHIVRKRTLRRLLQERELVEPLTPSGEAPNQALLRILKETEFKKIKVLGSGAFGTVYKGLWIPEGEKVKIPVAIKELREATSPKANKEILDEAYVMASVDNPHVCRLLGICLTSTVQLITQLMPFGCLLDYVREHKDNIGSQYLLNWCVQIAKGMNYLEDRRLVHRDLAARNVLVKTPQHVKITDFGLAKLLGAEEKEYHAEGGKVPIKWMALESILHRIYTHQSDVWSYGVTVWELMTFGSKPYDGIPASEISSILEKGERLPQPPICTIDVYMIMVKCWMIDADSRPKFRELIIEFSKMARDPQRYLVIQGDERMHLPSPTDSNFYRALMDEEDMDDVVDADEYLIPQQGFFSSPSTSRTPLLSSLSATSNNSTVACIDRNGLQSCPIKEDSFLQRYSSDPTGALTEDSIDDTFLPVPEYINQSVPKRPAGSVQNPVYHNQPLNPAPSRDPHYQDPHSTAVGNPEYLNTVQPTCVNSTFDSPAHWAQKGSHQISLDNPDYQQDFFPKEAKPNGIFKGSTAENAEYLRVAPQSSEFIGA

EGFR^T790M = EGFR^T790M (Homo sapiens, UniProt P00533, T790M); test: Caliper Mobility Shift Assay, mutant EGFR kinase; type: biochemical; details: read-out: Inhibition of Kinase Activity (IC50, nM) EGFR^T790M
EGFR^T790M, sequence (P00533 25-1210 T790M): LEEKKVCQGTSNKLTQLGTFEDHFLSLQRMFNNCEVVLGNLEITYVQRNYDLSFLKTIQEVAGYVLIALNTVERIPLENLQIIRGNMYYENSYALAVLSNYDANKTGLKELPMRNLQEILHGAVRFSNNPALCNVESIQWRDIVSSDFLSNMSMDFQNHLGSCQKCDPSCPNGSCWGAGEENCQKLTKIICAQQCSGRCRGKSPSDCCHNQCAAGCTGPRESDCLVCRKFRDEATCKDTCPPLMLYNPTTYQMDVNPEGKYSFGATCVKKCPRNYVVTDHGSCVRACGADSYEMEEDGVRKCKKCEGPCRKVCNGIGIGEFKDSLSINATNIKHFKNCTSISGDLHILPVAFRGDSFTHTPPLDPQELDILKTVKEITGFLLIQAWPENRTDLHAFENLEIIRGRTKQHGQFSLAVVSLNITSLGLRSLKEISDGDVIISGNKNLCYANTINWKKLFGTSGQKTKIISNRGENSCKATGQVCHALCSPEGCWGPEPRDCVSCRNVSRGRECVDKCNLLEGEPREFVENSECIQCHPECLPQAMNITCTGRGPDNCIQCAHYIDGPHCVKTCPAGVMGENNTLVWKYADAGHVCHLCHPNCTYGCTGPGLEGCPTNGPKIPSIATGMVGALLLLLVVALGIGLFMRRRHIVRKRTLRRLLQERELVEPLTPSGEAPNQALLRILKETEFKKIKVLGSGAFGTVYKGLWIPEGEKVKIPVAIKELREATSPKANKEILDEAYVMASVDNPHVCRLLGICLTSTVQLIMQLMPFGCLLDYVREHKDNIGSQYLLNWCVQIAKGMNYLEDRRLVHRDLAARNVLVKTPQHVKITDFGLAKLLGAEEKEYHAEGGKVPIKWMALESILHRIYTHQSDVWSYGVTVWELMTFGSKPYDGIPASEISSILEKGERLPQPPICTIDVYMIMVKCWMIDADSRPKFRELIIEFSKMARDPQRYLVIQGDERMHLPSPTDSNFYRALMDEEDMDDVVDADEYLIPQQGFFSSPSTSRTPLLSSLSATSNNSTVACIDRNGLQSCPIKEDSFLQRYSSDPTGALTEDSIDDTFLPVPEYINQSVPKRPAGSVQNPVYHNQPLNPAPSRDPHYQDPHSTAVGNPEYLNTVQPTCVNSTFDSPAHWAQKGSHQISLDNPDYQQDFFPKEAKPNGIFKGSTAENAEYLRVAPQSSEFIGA

[3] = system: A549 (non-small cell lung cancer); test: Transplanted tumor in nude mice, A549 model; type: in vivo, nude mice (BALB/c)
Excerpt: as §1

CN(C)C/C=C/C(=O)Nc1cc2c(Nc3ccc(F)c(Cl)c3)ncnc2cc1OC(F)F [Compound Ie]
inhibitory and therapeutic effects on A431 tumor model (A431(EGFR); 2.5, 5 mg/kg/day orally for 21 days): strong inhibitory effects and therapeutic effects
inhibitory effects on tumor cell growth compared with other drugs, A431 model (A431(EGFR); versus Erlotinib (50 mg/kg/day)): stronger inhibitory effects
IC50 (HER2): 11.7 nM
IC50 (A431): 1.24 µM
IC50 (H1975): 0.198 µM
IC50 (FaDu): 0.169 µM
IC50 (MDA-MB-468): 0.076 µM
IC50 (Calu-3): 0.022 µM
IC50 (NCI-H358): 0.195 µM
IC50 (DU145): 0.853 µM
IC50 (NCI-H2126): 1.69 µM
IC50 (C-33A): 0.057 µM
inhibitory and therapeutic effects on CAL27 tumor model [1]: strong inhibitory effects and therapeutic effects
inhibitory and therapeutic effects on MDA-MD-468 tumor model ([2]; 5, 10 mg/kg/day orally for 21 days): strong inhibitory effects and therapeutic effects
inhibitory effects on tumor cell growth compared with other drugs, MDA-MD-468 model ([2]; versus Docetaxel (12 mg/kg/week) and Afatinib (30 mg/kg/day)): stronger inhibitory effects
IC50 (EGFR): 0.4 nM
inhibitory effect on EGFR kinases relative to Afatinib, Neratinib and Gefitinib (EGFR): over two times
IC50 (EGFR^T790M): 4.6 nM
inhibitory and therapeutic effects on A549 tumor model ([3]; 10, 20 mg/kg/day orally for 21 days): strong inhibitory effects and therapeutic effects
inhibitory effects on tumor cell growth compared with other drugs, A549 model ([3]; versus Docetaxel (12 mg/kg/day)): stronger inhibitory effects
